The results in this text go back to ChEMBL document CHEMBL5647694, “Novel orally bioavailable EZH1/2 dual inhibitors with greater antitumor efficacy than an EZH2 selective inhibitor” (Cancer Sci, 2017).

In general, inhibition refers to the change of the read-out against control, counted positive when it falls.

For assay [1], the target named is Tyrosine-protein kinase CSK (Homo sapiens) (UniProt P41240). Nature of the assay: Inhibition of N-terminal GST-fused full length human CSK (1 to 450 residues) expressed in baculovirus-infected Sf21 cells using Srctide as substrate at 1 uM in presence of ATP by Mobility shift assay.
For assay [2], the target named is Fibroblast growth factor receptor 4 (Homo sapiens) (UniProt P22455). Nature of the assay: Inhibition of N-terminal GST-fused human FGFR4 cytoplasmic domain (460 to 802 residues) expressed in baculovirus-infected Sf21 cells using CSKtide as substrate at 1 uM in presence of ATP by Mobility shift assay.
The target of assay [3] is Hepatocyte growth factor receptor (Homo sapiens) (UniProt P08581). Nature of the assay: Inhibition of N-terminal GST-tagged human MET cytoplasmic domain (956 to 1390 residues ) expressed in baculovirus-infected Sf21 cells using Srctide as substrate at 1 uM in presence of ATP by Mobility shift assay.
For assay [4], the target named is Calcium/calmodulin-dependent protein kinase type 1D (Homo sapiens) (UniProt Q8IU85). Nature of the assay: Inhibition of N-terminal GST-tagged full length human CAMK1d (1 to 357 residues) expressed in baculovirus-infected Sf21 cells using Synapsin peptide as substrate at 1 uM in presence of ATP by Mobility shift assay.
Assay [5] has as its target Cyclin-dependent kinase 1/cyclin B1 (Homo sapiens) (UniProt P06493+P14635). Nature of the assay: Inhibition of N-terminal GST-fused full length human CDC2 (1 to 297 residues)/N-terminal GST fused human CyclinB1 (1 to 433 residues) expressed in baculovirus-infected Sf21 cells using Modified Histone H1 as substrate at 1 uM in presence of ATP by Mobility shift assay.
Assay [6] deals with CDK3/Cyclin E (Homo sapiens) (UniProt P24864+Q00526). Nature of the assay: Inhibition of N-terminal GST-tagged full length human CDK3 (1 to 305 residues)/N-terminal GST-tagged human CyclinE1 (1 to 410 residues) expressed in baculovirus-infected Sf21 cells using Modified Histone H1 as substrate at 1 uM in presence of ATP by Mobility shift assay.
Assay [7] addresses CDK4/Cyclin D3 (Homo sapiens) (UniProt P11802+P30281). Nature of the assay: Inhibition of N-terminal GST-tagged full length human CDK4 (1 to 303 residues)/N-terminal GST-tagged human CyclinD3 (1 to 292 residues) expressed in baculovirus-infected Sf21 cells using DYRKtide-F as substrate at 1 uM in presence of ATP by Mobility shift assay.
The target of assay [8] is cGMP-dependent protein kinase 2 (Homo sapiens) (UniProt Q13237). Nature of the assay: Inhibition of N-terminal GST-fused full length human CGK2 (1 to 762 residues) expressed in baculovirus expression system using Kemptide as substrate at 1 uM in presence of ATP by Mobility shift assay.
Assay [9] has as its target Casein kinase I isoform gamma-3 (Homo sapiens) (UniProt Q9Y6M4). Nature of the assay: Inhibition of N-terminal GST-fused full length human CK1gamma3 (1 to 447 residues) expressed in baculovirus expression system using CKtide as substrate at 1 uM in presence of ATP by Mobility shift assay.
Assay [10] deals with Dual specificity tyrosine-phosphorylation-regulated kinase 1B (Homo sapiens) (UniProt Q9Y463). Nature of the assay: Inhibition of N-terminal GST-fused full length human DYRK1B (1 to 629 residues) expressed in baculovirus expression system using DYRKtide-F as substrate at 1 uM in presence of ATP by Mobility shift assay.
Assay [11] addresses Homeodomain-interacting protein kinase 2 (Homo sapiens) (UniProt Q9H2X6). Nature of the assay: Inhibition of N-terminal GST-fused full length human HIPK2 (1 to 1198 residues) expressed in baculovirus expression system using DYRKtide-F as substrate at 1 uM in presence of ATP by Mobility shift assay.
Assay [12] has as its target Inhibitor of nuclear factor kappa-B kinase subunit beta (Homo sapiens) (UniProt O14920). Nature of the assay: Inhibition of N-terminal His-tagged truncated human IKK-beta (1 to 662 residues) expressed in baculovirus expression system using Modified IkBalpha-derived peptide as substrate at 1 uM in presence of ATP by Mobility shift assay.
The target in assay [13] is Interleukin-1 receptor-associated kinase 4 (Homo sapiens) (UniProt Q9NWZ3). Nature of the assay: Inhibition of N-terminal GST-fused full length human IRAK4 (1 to 460 residues) expressed in baculovirus expression system using IRAK1 peptide as substrate at 1 uM in presence of ATP by Mobility shift assay.
The target in assay [14] is MAP kinase-interacting serine/threonine-protein kinase 2 (Homo sapiens) (UniProt Q9HBH9). Nature of the assay: Inhibition of N-terminal GST-fused full length human MNK2 (1 to 465 residues) expressed in baculovirus expression system using RS peptide as substrate at 1 uM in presence of ATP by Mobility shift assay.
For assay [15], the target named is Serine/threonine-protein kinase MRCK beta (Homo sapiens) (UniProt Q9Y5S2). Nature of the assay: Inhibition of N-terminal GST-fused truncated human MRCKbeta (1 to 473 residues) expressed in baculovirus expression system using DAPK1tide as substrate at 1 uM in presence of ATP by Mobility shift assay.
In assay [16] the target is Ribosomal protein S6 kinase alpha-5 (Homo sapiens) (UniProt O75582). Nature of the assay: Inhibition of N-terminal GST-fused full length human MSK1 (1 to 802 residues) expressed in baculovirus expression system using Crosstide as substrate at 1 uM in presence of ATP by Mobility shift assay.
In assay [17] the target is Serine/threonine-protein kinase 26 (Homo sapiens) (UniProt Q9P289). Nature of the assay: Inhibition of N-terminal GST-fused full length human MST4 (1 to 416 residues) expressed in baculovirus expression system using Moesin-derived peptide as substrate at 1 uM in presence of ATP by Mobility shift assay.
Assay [18] addresses Phosphorylase b kinase gamma catalytic chain, skeletal muscle/heart isoform (Homo sapiens) (UniProt Q16816). Nature of the assay: Inhibition of N-terminal GST-fused full length human PHKG1 (1 to 387 residues) expressed in baculovirus expression system using GS peptide as substrate at 1 uM in presence of ATP by Mobility shift assay.
Assay [19] concerns the target Protein kinase C eta type (Homo sapiens) (UniProt P24723). Nature of the assay: Inhibition of N-terminal GST-fused human full length PKC-eta (1 to 683 residues ) expressed in baculovirus expression system using PKC peptide as substrate at 1 uM in presence of ATP by Mobility shift assay.
The target in assay [20] is Serine/threonine-protein kinase PLK3 (Homo sapiens) (UniProt Q9H4B4). Nature of the assay: Inhibition of N-terminal GST-fused human PLK3 catalytic domain (58 to 340 residues) expressed in baculovirus expression system using CDC25ctide as substrate at 1 uM in presence of ATP by Mobility shift assay.
In assay [21] the target is Rho-associated protein kinase 2 (Homo sapiens) (UniProt O75116). Nature of the assay: Inhibition of N-terminal GST-fused human ROCK2 catalytic domain (1 to 553 residues) expressed in baculovirus expression system using LIMKtide as substrate at 1 uM in presence of ATP by Mobility shift assay.
The target of assay [22] is Testis-specific serine/threonine-protein kinase 3 (Homo sapiens) (UniProt Q96PN8). Nature of the assay: Inhibition of N-terminal GST-fused full length human TSSK3 (2 to 268 residues) expressed in baculovirus expression system using GS peptide as substrate at 1 uM in presence of ATP by Mobility shift assay.

Regarding `Cc1cc(C)c(CNC(=O)c2cc(Br)c3c(c2C)O[C@@](C)([C@H]2CC[C@H](N(C)C)CC2)O3)c(=O)[nH]1`, the inhibition was -0.5% in assay [1]; -3.7% in assay [2]; -2.1% in assay [3]; -3.6% in [4]; 1.8% in assay [5]; -1% in [6]. The inhibition in assay [7] is -4.5%; in assay [8], -2.3%; in assay [9] it was 1.1%; in [10], 2.7%; in assay [11], -1.4%; in assay [12], 2.1%. Also, the inhibition is -5.6% in assay [13]; 7.2% in [14]; -1% in assay [15]; 1.4% in [16]; -0.1% in assay [17]; -1.5% in assay [18]. Further, the inhibition in [19] is 10.8%; in assay [20], -1.3%; in assay [21], 2.2%; in assay [22], 12.1%.

Consider `Cc1cc(C)c(CNC(=O)c2cc(Cl)c3c(c2C)O[C@@](C)([C@H]2CC[C@H](N(C)C)CC2)O3)c(=O)[nH]1` [VALEMETOSTAT], for which the inhibition in assay [1] was -5.9%; in assay [2], -5.6%; in assay [3], -5%; in [4], -3.5%; in assay [5], 8.7%; in [6], -0.2%. Besides, the inhibition was 2.1% in assay [7]; -4.3% in assay [8]; 0.5% in assay [9]; -9.8% in assay [10]; 3.1% in assay [11]; -1.8% in assay [12]. Moreover, the inhibition in [13] was -4.1%; in assay [14], 8.7%; in [15] it was -1.3%; in assay [16], 0.4%; in assay [17], 0.8%; in [18] it was -3.7%. Further, the inhibition in [19] is 19.8%; in assay [20] it was -7.8%; in [21], 3.3%; in assay [22] it was 7.3%.
